# Source: patent US9446087B2, “Anti-resorptive and bone building dietary supplements and methods of use” (priority 2006, dated 2016)
# “And” between values parts separate entries of the source, which are not always exact repeats. Identical values can stand only once. Marks after values point to notes of the source that are not given here.
# Assays:
# Neonatal murine calvaria = assay: Calvarial Assay to Measure Bone Growth; assay type: cell-based, Swiss white mice
# Experimental: Neonatal murine calvaria from 4 day old Swiss white mice are excised, placed into BGJ media (Sigma), and cut in half along the midline suture. One milliliter of BGJ media supplemented with 0.1% bovine serum albumin (BSA) is added to each well of a 12 well tissue culture plate (Costar) to which the relevant factors or vehicles are added. Each half calvaria is placed on a stainless steel grid in the above media at the media/air interface. Usually 4 bones per experimental group are used. […] Factors to be tested are added on Day 0 (the day of dissection) and media is changed at 24 and 96 hours (if a 7 day assay is required). Calvaria are maintained in humidified air (5% Co2), at 37° C. Following the period of incubation, the calvaria are then removed and fixed overnight in 10% formalin. The calvaria are then decalcified in 14% EDTA overnight and are then embedded in paraffin wax. Sections are then cut, using a standard microtome, along the midline suture to reveal the coronal suture and the region posterior to this suture. Four micrometer sections were taken initially and at two sequential […] depths. Sections are placed on coated glass slides (Superfrost plus, Fisher Scientific, Pittsburgh, Pa.) and stained with hematoxylin and eosin. The total and new bone area (expressed as mm^2), suture thickness (mm), and number of cells lining the bone surface are determined in the section posterior to the […] suture. Histomorphometric analysis is performed using the Osteomeasure System (Osteometrics INC, Atlanta, Ga.).
# BMP-2 = BMP-2 Gene Expression Assay (MG-63 cells, real time PCR); assay type: cell-based, human
# Experimental: It is also possible to test for BMP-2 gene expression and protein expression using assays similar to those described above for testing BMP-2 promoter activity. In particular, for gene expression, the human osteosarcoma cell line, MG-63 (ATCC# CRL-1427), is maintained in phenol-red containing MEM (as recommended by ATCC) at 37° C. and 5% CO2. Twenty-four hours prior to experimentation, 3×10^5 cells are seeded in 12-well plates in phenol-red free MEM. […] After an overnight incubation, RNA is extracted using conventional trizol/guanidine isothiocyanate based lysis. The isolated RNA was digested with RNase-free DNase I to remove any DNA contamination and then reverse transcribed to cDNA using random hexamer as well as oligo(dT) primers according to the manufacturer's instructions (Stratagene). Quantitative real time PCR is performed using FAM-labeled specific primers for BMP-2 and HEX-labeled specific primers for 18S rRNA (Invitrogen). All reactions are carried out in triplicate and the relative amount of mRNAs in treated versus untreated samples is calculated using the comparative CT method established by Applied Biosystems (2001). Gene expression changes of 2-fold or greater are considered significant.
# BMP-2 promoter = assay: BMP2 Promoter assay (2T3-BMP2-Luciferase cells, luciferase); assay type: cell-based, murine
# BMP-2 protein = assay: BMP-2 Protein Expression Assay (Hu09 cells, ELISA); assay type: cell-based
# Experimental: The cells are treated with different proteasome inhibitors for 24 hours. After incubation, the conditioned media is transferred into microcentrifuge tubes and centrifuged at 14,000 rpm for 2-3 minutes to remove cellular debris. The concentration of BMP-2 protein in the supernatant is then determined using the standard BMP-2 Elisa Kit (R&D ELISA KIT DBP200). Recombinant hBMP-2 (R&D) is used as a standard.
# [1] = system: Female, Sprague Dawley rats; assay: In Vivo Study to Measure Bone Growth - biomechanical measurements; parameters: species or system rat; conditions: positive control, 50 μg/kg (10 μg/200 g)/3 × per week; 35 days; vs placebo group
# Experimental: Three different formulas were tested in an in vivo study involving female, intact rats, aged approximately 12-14 weeks, with approximate body weights between 200-250 grams. Formula 1 included dosages of quercetin anhydrate and licorice at 250 mg quercetin:250 mg licorice ethanol extract and 500 mg quercetin:500 mg licorice ethanol extract. Formula 2 included dosages of quercetin anhydrate and licorice at 250 mg quercetin:125 mg licorice ethanol extract; 500 mg quercetin:250 mg licorice ethanol extract; and 1000 mg quercetin:500 mg licorice ethanol extract. Formula 3 included dosages of quercetin and licorice at 1000 mg quercetin:200 mg licorice ethanol extract. The study lasted 35 days. […]
# (§1) The effectiveness of the formulas on bone formation was assessed by outcome measurements that included biomechanical measurement (to assess bone strength and function information), micro-CT (to analyze virtual bone quality and function information), and histomorphology measurement (to analyze bone quality and functional information). […] These measurements were determined after 35 days of treatment.
# Besides bone mass and bone volume evaluation, bone strength was examined mechanically using two different parameters. One parameter measured the maximum force needed to fracture the bone and the other determined the stiffness (the elasticity) of bone. […]
# [2] = system: Female, Sprague Dawley rats; assay: In Vivo Study to Measure Bone Growth - histomorphological measurements; parameters: species or system rat; conditions: positive control, 50 μg/kg (10 μg/200 g)/3 × per week; 35 days; vs placebo group
# Experimental: Three different formulas were tested in an in vivo study involving female, intact rats, aged approximately 12-14 weeks, with approximate body weights between 200-250 grams. Formula 1 included dosages of quercetin anhydrate and licorice at 250 mg quercetin:250 mg licorice ethanol extract and 500 mg quercetin:500 mg licorice ethanol extract. Formula 2 included dosages of quercetin anhydrate and licorice at 250 mg quercetin:125 mg licorice ethanol extract; 500 mg quercetin:250 mg licorice ethanol extract; and 1000 mg quercetin:500 mg licorice ethanol extract. Formula 3 included dosages of quercetin and licorice at 1000 mg quercetin:200 mg licorice ethanol extract. The study lasted 35 days. Eight separate groups of rats were tested with 15 rats in each group. Two of the eight groups of rats tested were control groups. One was a placebo control group and the other group received 50 μg/kg (10 μg/200 g)/3× per week parathyroid hormone. Parathyroid hormone, known as an anabolic agent, served as a positive control. See, e.g., Turner et al., “Disuse in adult male rats attenuates the bone anabolic response to a therapeutic dose of parathyroid hormone.” J. Appl Physiol. 2006. […]
# as §1
# Six animals from each group were sacrificed on day 35 following treatment. […] To determine the effect of the different formulas on bone formation, trabecula bone volume, trabecular cells number and trabecular separation were assessed by histomorphology technique. […]
# Bone mineral apposition rate (MARs), also reported by Table 8, was determined by measuring the mean interlabel distance divided by the time interval (5 days) between the two fluororchromes administered. […]
# [3] = system: Female, Sprague Dawley rats; assay: In Vivo Study to Measure Bone Growth - micro-CT measurements; parameters: species or system rat; conditions: positive control, 50 μg/kg (10 μg/200 g)/3 × per week; 35 days; vs placebo group
# Experimental: Three different formulas were tested in an in vivo study involving female, intact rats, aged approximately 12-14 weeks, with approximate body weights between 200-250 grams. Formula 1 included dosages of quercetin anhydrate and licorice at 250 mg quercetin:250 mg licorice ethanol extract and 500 mg quercetin:500 mg licorice ethanol extract. Formula 2 included dosages of quercetin anhydrate and licorice at 250 mg quercetin:125 mg licorice ethanol extract; 500 mg quercetin:250 mg licorice ethanol extract; and 1000 mg quercetin:500 mg licorice ethanol extract. Formula 3 included dosages of quercetin and licorice at 1000 mg quercetin:200 mg licorice ethanol extract. The study lasted 35 days. Eight separate groups of rats were tested with 15 rats in each group. Two of the eight groups of rats tested were control groups. One was a placebo control group and the other group received 50 μg/kg (10 μg/200 g)/3× per week parathyroid hormone. Parathyroid hormone, known as an anabolic agent, served as a positive control. See, e.g., Turner et al., “Disuse in adult male rats attenuates the bone anabolic response to a therapeutic dose of parathyroid hormone.” J. Appl Physiol. 2006. Vol. 101:881-886, the entire contents of which are incorporated herein by reference.
# Table 7 below indicates the formula given to each of the 8 test groups. The dosages in Table 7 are based on the recommended human daily dosages. FDA dose conversion formula (Human equivalent dose (HED, mg/kg)=rat dose in mg/kg×(rat weight in kg/human weight in kg)^0.33) was used to convert the human dose to the rat dose. HED=rat NOAEL×(W-rat/W-human)^(1-b), b=0.67.
# Female, Sprague Dawley rats were used (200-250 gm each, ˜12-14 weeks old). Animals were fed at 15 gm/day, which included either a placebo diet or one of the formulas listed above, for a period of 35 days from the beginning of the experiment. Chow was made available each morning to the rats at the rate of 15 grams/rat/day. The rats were allowed free access to water and housed in appropriate cages for the entire experiment. Unrestricted activity was allowed during the entire experiment, which lasted 35 days.
# as §1, with “treatment. […]” for “treatment.”
# Obtaining information from a wide range of parameters such as bone mineral density (BMD), bone volume (% bone volume/total volume), trabecular number, and trabecular separation is critical for bone structure assessment quantitatively and qualitatively. […]
molecule,measurement,setting,value
CCC(C)(C)C(=O)O[C@H]1C[C@@H](C)C=C2C=C[C@H](C)[C@H](CC[C@@H]3C[C@@H](O)CC(=O)O3)[C@H]21 [Simvastatin],Calvarial Assay Results- Bone formation,"Neonatal murine calvaria; 0.25 μM, positive control",7.45 ± 1.34 mm^2 × 10^−3
same,Calvarial Assay Results- Bone formation,"Neonatal murine calvaria; 0.5 μM, positive control",9.50 ± 1.00 mm^2 × 10^−3
same,Calvarial Assay Results- Bone formation,"Neonatal murine calvaria; 1 μM, positive control",12.5 ± 1.00 mm^2 × 10^−3
"O=c1c(O)c(-c2ccc(O)c(O)c2)oc2cc(O)cc(O)c12 [Q, Quercetin]",BMP-2 Expression (fold change),BMP-2; 0.1 μg/ml,No change (−1.06) fold change
same,BMP-2 Expression (fold change),BMP-2; 1 μg/ml,2 fold change and 2.03 fold change
same,BMP-2 Expression (fold change),BMP-2; 5 μg/ml,2.51 ± 0.14 fold change
same,Fold Change in Gene Expression,BMP-2; 10 μg/ml,2.6 × increase
same,BMP-2 Expression (fold change),BMP-2; 20 μg/ml,4.61 ± 0.07 fold change
same,BMP-2 Expression (fold change),BMP-2; 100 μg/ml,14 fold change
same,Calvarial Assay Results - Bone Formation Stimulated by Extract Combinations,Neonatal murine calvaria; 0.2 ug/ml,6.90 ± 0.56 mm^2 × 10^−3
same,Calvarial Assay Results - Bone Formation Stimulated by Extract Combinations,Neonatal murine calvaria; 0.7 ug/ml,10.30 ± 0.78^a mm^2 × 10^−3
same,Calvarial Assay Results - Bone Formation Stimulated by Extract Combinations,Neonatal murine calvaria; 1 ug/ml,13.70 ± 3.20^a mm^2 × 10^−3
same,Calvarial Assay Results- Bone formation,Neonatal murine calvaria; 1 μg/ml,7.57 ± 1.52 mm^2 × 10^−3
same,Calvarial Assay Results - Bone Formation Stimulated by Extract Combinations,Neonatal murine calvaria; 8.3 ug/ml,0.10 ± 0.10 mm^2 × 10^−3
same,Calvarial Assay Results- Bone formation,Neonatal murine calvaria; 10 μg/ml,13.41 ± 2.50^a mm^2 × 10^−3
same,Calvarial Assay Results - Bone Formation Stimulated by Extract Combinations,Neonatal murine calvaria; 14.3 ug/ml,0.10 ± 0.12 mm^2 × 10^−3
same,Calvarial Assay Results- Bone formation,Neonatal murine calvaria; 100 μg/ml,13.55 ± 1.47^a mm^2 × 10^−3
same,BMP2 Promoter assay (ratio to control),BMP-2 promoter; 0.05 μg/ml,1.00 FOLD
same,BMP2 Promoter assay (ratio to control),BMP-2 promoter; 0.1 μg/ml,1.10 FOLD
same,BMP2 Promoter assay (ratio to control),BMP-2 promoter; 0.2 μg/ml,1.10 FOLD
same,BMP2 Promoter assay (ratio to control),BMP-2 promoter; 0.4 μg/ml,1.00 FOLD
same,BMP2 Promoter assay (ratio to control),BMP-2 promoter; 0.8 μg/ml,1.15 FOLD
same,BMP2 Promoter assay (ratio to control),BMP-2 promoter; 1.6 μg/ml,1.30 FOLD
same,BMP2 Promoter assay (ratio to control),BMP-2 promoter; 3.2 μg/ml,1.80 FOLD
same,BMP2 Promoter assay (ratio to control),BMP-2 promoter; 6.3 μg/ml,2.30 FOLD
same,BMP2 Promoter assay (ratio to control),BMP-2 promoter; 12.5 μg/ml,2.90 FOLD
same,BMP2 Promoter assay (ratio to control),BMP-2 promoter; 25 μg/ml,3.60 FOLD
same,BMP2 Promoter assay (ratio to control),BMP-2 promoter; 50 μg/ml,4.80 FOLD
same,BMP2 Promoter assay (ratio to control),BMP-2 promoter; 100 μg/ml,5.20 FOLD
same,BMP-2 Protein Expression,BMP-2 protein; 1 μg/ml,2.0 FOLD
same,BMP-2 Protein Expression,BMP-2 protein; 10 μg/ml,4.6 FOLD
same,BMP-2 Protein Expression,BMP-2 protein; 100 μg/ml,2.2 FOLD
"PTH: parathyroid hormone, anabolic agent, positive control (protein, UniProt P01270 32-115, looked up, Parathyroid hormone, parathyroid hormone, anabolic agent, positive control) Parathyroid hormone: SVSEIQLMHNLGKHLNSMERVEWLRKKLQDVHNFVALGAPLAPRDAGSQRPRKKEDNVLVESHEKSLGEADKADVNVLTKAKSQ",Bone Stiffness,[1],0.0%
same,Maximum Force Required to Fracture Bones,[1],0.0%
same,Trabecular Separation,[2],−38.30%
same,Trabecular thickness,[2],7.35%
same,reduction in trabecular separation,[2],38.30%
same,% Bone Volume/ Total Volume,[3],32%^a
same,Bone Mineral Density (BMD),[3],86%^a
same,Trabecular Number (N/6 mm^2),[3],25%^a
same,Trabecular separation (mm),[3],−28%^a
